This test concerns Human Aortic Endothelial Cells. The experiment in a line: Gene expression differences (Affymetrix PRIMEVIEW microarray) under shear stress conditions with PI-103 treatment in a flow chamber. In kind it is cell-based. The procedure: Cells were cultured on a collagen I-coated growth surface under static conditions (no flow) until confluency was reached. Cells were then either exposed to fluid flow in a flow chamber at 0.2 or 1.0 Pa for 20 hours, or left in static culture for the same amount of time. At 20 hours, RNA was isolated from the cells using an Ambion MIRVANA™ RNA isolation kit (Life Technologies, Foster City Calif., United States of America) and processed for analysis on Affymetrix PRIMEVIEW™ arrays (Affymetrix, Inc., Santa Clara, Calif., United States of America). Three experiments were performed for each condition, providing replicates for microarray analysis.
Gene expression differences in Human Aortic Endothelial Cells were also tested under different shear stress conditions, using a flow chamber device, in the presence or absence of the PI3K/Akt and mTOR inhibitor PI-103 (3-[4-(4-morpholinyl)pyrido[3′,2′:4,5]furo[3,2-d]pyrimidin-2-yl]-phenol); CAS No. 371935-74-9) at a concentration of 100 nM.
Cells were grown on a collagen-I coated growth surface and treated with 100 nM PI-103 in the presence of flow. For the 4 hour time point, cells were exposed to fluid flow for 16 hours and treated with PI-103 for the last 4 hours in the presence of flow. Cells were also treated with PI-103 for the entire duration of flow (20 hours). Data was generated using RNA extracted as described in Example 1, and analyzed on Affymetrix PRIMEVIEW™ arrays (Affymetrix, Inc.,). Three experiments were performed for each condition, providing replicates for microarray analysis.

Regarding `Oc1cccc(-c2nc(N3CCOCC3)c3oc4ncccc4c3n2)c1` [PI-103, 3-[4-(4-morpholinyl)pyrido[3′,2′:4,5]furo[3,2-d]pyrimidin-2-yl]-phenol], the “No. of Genes Changed” value is, setting by setting: (0.2 Pa shear stress, 100 nM PI-103, 4 hr drug exposure, vs non-treated cells under same flow) 830; (0.2 Pa shear stress, 100 nM PI-103, 20 hr drug exposure, vs non-treated cells under same flow) 113; (1.0 Pa shear stress, 100 nM PI-103, 4 hr drug exposure, vs non-treated cells under same flow) 1563; (1.0 Pa shear stress, 100 nM PI-103, 20 hr drug exposure, vs non-treated cells under same flow) 119; (No Shear (static), 100 nM PI-103, 4 hr drug exposure, vs non-treated cells under same condition) 130; (No Shear (static), 100 nM PI-103, 20 hr drug exposure, vs non-treated cells under same condition) 159.

The record behind these values is patent US10215749B2, “Ported parallel plate flow chamber and methods for use thereof” (priority 2013, dated 2019).
